The results in this text go back to PMC5540273, “Progress towards a public chemogenomic set for protein kinases and a call for contributions” (PLoS ONE, 2017).

Holding throughout (assay): KINOMEscan competition binding
One experiment addresses HIPK2 (Homo sapiens, UniProt Q9H2X6). The conditions noted are these: read-out: %Inh HIPK2.
Another experiment has as its target T1, DMPK (Homo sapiens, UniProt Q09013).
T1 sequence (Q09013 1-629): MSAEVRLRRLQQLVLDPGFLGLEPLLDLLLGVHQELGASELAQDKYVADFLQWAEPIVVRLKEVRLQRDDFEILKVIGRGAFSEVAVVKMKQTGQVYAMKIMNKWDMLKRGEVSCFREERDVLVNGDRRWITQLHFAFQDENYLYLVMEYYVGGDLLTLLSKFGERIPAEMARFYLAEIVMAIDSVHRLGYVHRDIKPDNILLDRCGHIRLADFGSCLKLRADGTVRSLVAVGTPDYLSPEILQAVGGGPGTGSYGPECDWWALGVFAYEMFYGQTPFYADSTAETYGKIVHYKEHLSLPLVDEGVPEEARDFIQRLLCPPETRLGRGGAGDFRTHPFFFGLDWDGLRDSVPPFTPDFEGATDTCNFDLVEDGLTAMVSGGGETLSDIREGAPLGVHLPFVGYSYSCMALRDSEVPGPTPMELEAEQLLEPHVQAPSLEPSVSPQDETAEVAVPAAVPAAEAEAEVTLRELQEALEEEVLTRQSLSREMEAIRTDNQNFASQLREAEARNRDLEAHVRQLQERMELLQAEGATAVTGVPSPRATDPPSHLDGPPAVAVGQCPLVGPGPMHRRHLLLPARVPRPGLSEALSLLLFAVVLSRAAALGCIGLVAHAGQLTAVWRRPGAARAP
To be noted: read-out: %Inh DMPK.

A further experiment deals with HPK1 (Homo sapiens, UniProt Q92918). To be noted: read-out: %Inh HPK1.
In another experiment the target is INSRR (Homo sapiens, UniProt P14616). To be noted: read-out: %Inh INSRR.
Another experiment concerns the target ALK (Homo sapiens, UniProt Q9UM73). The conditions noted are these: read-out: %Inh ALK.
Another experiment has as its target CAMK1G (Homo sapiens, UniProt Q96NX5). To be noted: read-out: %Inh CAMK1G.
In the next experiment the target is T2, BMPR2 (Homo sapiens, UniProt Q13873).
T2 sequence (Q13873 27-1038): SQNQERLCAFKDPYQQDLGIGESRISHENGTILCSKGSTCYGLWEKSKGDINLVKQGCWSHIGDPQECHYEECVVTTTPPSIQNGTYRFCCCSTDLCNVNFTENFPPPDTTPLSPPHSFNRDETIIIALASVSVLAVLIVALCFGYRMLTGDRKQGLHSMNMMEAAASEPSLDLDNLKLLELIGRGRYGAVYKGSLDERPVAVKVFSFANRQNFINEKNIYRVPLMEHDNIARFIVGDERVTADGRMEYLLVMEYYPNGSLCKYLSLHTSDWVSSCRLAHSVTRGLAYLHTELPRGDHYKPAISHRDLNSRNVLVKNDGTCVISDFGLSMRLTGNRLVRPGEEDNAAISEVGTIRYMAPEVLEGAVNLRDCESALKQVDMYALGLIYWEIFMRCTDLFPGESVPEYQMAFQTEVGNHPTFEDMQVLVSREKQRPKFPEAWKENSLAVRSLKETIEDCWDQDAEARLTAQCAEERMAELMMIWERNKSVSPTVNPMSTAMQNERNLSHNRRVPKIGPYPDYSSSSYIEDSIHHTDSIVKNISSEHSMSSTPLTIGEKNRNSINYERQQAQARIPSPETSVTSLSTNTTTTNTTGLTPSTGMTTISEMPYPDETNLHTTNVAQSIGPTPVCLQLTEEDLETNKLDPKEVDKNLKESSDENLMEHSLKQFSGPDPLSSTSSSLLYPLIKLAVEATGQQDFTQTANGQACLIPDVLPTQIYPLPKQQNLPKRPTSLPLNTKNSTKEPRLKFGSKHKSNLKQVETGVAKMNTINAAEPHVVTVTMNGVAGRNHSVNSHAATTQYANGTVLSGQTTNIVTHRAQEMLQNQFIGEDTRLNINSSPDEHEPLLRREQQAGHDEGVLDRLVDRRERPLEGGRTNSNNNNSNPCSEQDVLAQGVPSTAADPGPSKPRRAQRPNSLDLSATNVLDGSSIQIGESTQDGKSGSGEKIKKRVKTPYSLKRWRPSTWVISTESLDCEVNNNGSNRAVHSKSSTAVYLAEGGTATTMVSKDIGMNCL
The conditions noted are these: read-out: %Inh BMPR2.

A further experiment addresses ERBB2 (Homo sapiens, UniProt P04626). To be noted: read-out: %Inh ERBB2.
For a further experiment, the target named is CDK4-cyclinD3 (Homo sapiens, UniProt P11802). To be noted: read-out: %Inh CDK4-cyclinD3.
The next experiment addresses CLK4 (Homo sapiens, UniProt Q9HAZ1). To be noted: read-out: %Inh CLK4.
The next experiment addresses CLK2 (Homo sapiens, UniProt P49760). The conditions noted are these: read-out: %Inh CLK2.
In a further experiment the target is T3, GRK1 (Homo sapiens, UniProt Q15835).
T3 sequence (Q15835 1-563): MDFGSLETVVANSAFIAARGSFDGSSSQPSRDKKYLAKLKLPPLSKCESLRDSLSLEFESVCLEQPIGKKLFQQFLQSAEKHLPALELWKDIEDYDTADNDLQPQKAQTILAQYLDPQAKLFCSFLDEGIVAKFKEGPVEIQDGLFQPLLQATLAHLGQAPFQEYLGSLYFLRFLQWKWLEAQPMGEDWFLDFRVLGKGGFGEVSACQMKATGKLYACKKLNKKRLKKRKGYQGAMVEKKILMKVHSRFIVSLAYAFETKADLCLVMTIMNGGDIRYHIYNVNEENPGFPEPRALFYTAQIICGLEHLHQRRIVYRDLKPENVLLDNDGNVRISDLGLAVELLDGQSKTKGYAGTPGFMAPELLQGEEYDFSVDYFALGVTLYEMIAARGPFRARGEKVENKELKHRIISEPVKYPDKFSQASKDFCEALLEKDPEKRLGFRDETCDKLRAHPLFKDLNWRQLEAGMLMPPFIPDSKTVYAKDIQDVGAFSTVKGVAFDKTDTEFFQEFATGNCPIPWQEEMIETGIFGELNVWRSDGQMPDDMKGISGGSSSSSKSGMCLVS
To be noted: read-out: %Inh GRK1.

Sequence of INSRR (P14616 27-1297): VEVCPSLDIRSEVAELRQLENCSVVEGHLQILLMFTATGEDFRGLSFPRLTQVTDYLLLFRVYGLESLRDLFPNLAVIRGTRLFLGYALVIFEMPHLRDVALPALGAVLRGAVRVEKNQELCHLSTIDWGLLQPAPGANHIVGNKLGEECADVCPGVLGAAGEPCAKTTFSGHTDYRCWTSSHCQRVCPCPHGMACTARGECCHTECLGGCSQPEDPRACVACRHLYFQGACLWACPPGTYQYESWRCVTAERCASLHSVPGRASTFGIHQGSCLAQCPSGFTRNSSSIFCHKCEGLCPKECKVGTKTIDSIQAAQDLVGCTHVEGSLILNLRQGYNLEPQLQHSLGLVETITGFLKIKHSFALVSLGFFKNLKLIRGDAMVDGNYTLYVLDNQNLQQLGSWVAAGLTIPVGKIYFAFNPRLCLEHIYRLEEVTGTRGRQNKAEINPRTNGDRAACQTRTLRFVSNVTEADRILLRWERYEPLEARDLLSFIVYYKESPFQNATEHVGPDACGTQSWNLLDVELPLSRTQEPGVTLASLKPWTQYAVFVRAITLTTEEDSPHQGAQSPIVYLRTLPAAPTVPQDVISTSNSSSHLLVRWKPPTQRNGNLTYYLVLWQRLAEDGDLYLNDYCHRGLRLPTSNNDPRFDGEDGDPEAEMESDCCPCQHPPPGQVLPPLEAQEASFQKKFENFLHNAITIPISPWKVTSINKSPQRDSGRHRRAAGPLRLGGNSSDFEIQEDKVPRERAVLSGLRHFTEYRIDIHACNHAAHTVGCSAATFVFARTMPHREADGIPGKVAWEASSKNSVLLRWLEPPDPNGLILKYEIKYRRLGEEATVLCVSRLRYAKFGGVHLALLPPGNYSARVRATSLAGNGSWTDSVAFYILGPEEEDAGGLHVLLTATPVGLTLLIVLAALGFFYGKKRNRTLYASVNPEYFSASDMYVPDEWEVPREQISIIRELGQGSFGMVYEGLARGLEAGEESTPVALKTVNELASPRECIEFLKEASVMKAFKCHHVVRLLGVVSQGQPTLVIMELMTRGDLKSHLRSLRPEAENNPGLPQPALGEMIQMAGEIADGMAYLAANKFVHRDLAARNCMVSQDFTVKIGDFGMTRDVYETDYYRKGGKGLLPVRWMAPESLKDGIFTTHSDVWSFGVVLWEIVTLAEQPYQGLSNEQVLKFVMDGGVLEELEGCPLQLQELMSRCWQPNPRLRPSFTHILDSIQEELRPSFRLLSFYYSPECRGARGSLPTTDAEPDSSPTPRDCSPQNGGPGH
Sequence of CLK2 (P49760 whole entry): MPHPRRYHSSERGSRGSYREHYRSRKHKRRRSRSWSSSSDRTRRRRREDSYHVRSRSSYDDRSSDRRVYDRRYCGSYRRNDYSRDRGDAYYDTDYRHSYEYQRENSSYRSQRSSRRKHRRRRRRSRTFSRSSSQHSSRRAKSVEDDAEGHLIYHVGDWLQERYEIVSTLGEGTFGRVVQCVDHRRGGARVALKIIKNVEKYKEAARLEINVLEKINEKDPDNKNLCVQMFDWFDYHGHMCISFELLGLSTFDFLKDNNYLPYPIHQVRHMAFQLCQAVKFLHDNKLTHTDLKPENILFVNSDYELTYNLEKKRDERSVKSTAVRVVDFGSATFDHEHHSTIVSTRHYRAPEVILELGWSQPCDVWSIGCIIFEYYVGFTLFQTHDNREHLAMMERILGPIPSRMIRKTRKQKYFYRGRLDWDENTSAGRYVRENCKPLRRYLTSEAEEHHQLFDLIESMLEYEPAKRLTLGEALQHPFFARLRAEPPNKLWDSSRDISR
Sequence of HIPK2 (Q9H2X6 whole entry): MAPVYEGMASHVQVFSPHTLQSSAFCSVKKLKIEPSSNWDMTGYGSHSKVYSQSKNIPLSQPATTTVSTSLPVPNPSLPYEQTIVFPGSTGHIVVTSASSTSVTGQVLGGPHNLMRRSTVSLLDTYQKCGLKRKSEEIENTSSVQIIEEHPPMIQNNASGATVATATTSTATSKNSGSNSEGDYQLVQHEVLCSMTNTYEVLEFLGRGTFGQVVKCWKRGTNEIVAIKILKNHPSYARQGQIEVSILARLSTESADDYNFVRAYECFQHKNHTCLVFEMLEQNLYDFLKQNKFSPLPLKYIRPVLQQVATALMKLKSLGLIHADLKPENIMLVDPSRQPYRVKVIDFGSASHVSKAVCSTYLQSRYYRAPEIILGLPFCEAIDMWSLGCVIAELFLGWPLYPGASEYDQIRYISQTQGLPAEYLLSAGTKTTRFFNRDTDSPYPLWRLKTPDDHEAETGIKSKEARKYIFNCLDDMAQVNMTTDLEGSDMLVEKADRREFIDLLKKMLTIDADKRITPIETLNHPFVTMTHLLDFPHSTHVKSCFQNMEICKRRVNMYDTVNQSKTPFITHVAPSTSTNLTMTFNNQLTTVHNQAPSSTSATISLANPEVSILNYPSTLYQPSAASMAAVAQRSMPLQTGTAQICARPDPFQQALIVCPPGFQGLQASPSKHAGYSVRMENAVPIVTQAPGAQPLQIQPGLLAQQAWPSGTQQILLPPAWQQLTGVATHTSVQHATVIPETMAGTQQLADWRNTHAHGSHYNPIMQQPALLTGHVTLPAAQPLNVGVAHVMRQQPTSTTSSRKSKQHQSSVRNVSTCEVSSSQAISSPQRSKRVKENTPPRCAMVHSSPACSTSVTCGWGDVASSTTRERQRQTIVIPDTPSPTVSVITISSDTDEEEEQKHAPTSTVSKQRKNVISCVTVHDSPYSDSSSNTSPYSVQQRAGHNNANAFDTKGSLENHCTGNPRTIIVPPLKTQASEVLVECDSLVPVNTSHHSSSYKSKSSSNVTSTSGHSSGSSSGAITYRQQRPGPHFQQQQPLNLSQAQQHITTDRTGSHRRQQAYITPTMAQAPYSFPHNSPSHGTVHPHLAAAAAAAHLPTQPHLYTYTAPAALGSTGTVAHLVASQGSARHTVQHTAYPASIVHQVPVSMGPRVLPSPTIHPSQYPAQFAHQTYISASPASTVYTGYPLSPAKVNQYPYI
Sequence of CLK4 (Q9HAZ1 whole entry): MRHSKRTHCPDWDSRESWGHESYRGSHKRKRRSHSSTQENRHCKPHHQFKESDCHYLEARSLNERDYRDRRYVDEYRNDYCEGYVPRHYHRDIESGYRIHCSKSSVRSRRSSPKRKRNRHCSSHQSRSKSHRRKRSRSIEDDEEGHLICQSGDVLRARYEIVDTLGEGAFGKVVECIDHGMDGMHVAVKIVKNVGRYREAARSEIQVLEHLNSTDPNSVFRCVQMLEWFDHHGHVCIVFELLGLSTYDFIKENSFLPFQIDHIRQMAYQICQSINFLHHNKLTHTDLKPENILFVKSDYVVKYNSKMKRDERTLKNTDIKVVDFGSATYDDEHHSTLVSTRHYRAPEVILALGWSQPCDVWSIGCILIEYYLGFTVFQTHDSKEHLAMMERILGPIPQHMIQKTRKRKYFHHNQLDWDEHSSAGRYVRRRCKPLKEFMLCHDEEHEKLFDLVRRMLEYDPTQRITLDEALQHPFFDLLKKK
Sequence of CDK4-cyclinD3 (P11802 whole entry): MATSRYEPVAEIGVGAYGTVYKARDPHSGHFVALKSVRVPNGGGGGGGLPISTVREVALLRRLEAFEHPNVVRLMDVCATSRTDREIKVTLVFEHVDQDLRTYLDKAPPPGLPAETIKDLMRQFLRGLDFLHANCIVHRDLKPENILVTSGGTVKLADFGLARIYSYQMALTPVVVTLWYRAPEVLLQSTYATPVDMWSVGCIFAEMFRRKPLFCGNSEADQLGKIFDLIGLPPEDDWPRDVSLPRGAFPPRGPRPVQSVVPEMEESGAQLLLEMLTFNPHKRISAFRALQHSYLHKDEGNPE
Sequence of CDK4-cyclinD3 (P30281 whole entry partner): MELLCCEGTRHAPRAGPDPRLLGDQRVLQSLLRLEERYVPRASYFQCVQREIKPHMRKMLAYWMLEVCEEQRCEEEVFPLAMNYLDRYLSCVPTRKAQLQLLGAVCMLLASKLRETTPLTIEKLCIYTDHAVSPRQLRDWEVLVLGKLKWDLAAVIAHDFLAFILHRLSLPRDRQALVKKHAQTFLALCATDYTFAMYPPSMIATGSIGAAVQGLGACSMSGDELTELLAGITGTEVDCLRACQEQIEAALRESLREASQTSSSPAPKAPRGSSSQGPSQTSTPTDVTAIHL
Sequence of CAMK1G (Q96NX5 whole entry): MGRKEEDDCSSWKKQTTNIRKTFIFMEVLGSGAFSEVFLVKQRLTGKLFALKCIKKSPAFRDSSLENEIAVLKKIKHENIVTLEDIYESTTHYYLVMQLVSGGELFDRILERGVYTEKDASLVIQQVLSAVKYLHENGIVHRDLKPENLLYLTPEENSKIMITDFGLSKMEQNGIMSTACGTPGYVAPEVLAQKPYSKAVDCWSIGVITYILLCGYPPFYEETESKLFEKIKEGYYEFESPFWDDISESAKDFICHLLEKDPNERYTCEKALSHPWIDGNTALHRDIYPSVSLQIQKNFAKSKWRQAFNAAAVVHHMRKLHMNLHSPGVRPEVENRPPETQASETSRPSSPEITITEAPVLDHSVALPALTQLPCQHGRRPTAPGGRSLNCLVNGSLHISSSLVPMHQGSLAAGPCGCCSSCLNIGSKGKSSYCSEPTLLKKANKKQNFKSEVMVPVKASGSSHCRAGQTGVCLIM

Consider `COc1cccc(OC)c1C(=O)Nc1cccc(-c2nn3ccccc3c2-c2ccnc(Nc3cccc(F)c3)n2)c1` [UNC10225310A], for which the inhibition at 1 µM on HIPK2 came out at 0%; at DMPK, 2%; on HPK1, 2%; on INSRR it was 0%; on ALK, 0%; on CAMK1G, 0%. The inhibition at 1 µM at BMPR2 was 0%; at ERBB2 it was 61%; at CDK4-cyclinD3, 7%; at CLK4 it was 0%; at CLK2, 21%; at GRK1, 0%.

On to `O=c1cc(N2CCOCC2)nc2n(Cc3cccc(Cl)c3Cl)c(C3CC3)nn12` [UNC10225469A], for which the inhibition at 1 µM came out at 0% on HIPK2; 0% at DMPK; 14% on HPK1; 0% at INSRR; 0% on ALK; 5% on CAMK1G. Also, the inhibition at 1 µM on BMPR2 was 13%; on ERBB2, 0%; at CDK4-cyclinD3, 0%; on CLK4, 0%; at CLK2 it was 25%; at GRK1 it was 0%.

`Cn1cc(-c2cnc(N)c3c(-c4ccc5c(c4)CCN5C(=O)Cc4ccccc4)csc23)cn1` [UNC10225012A]: the inhibition at 1 µM on HIPK2 is 0%; on DMPK, 0%; at HPK1, 94%; at INSRR, 13%; at ALK it was 0%; at CAMK1G it was 0%. The inhibition at 1 µM is 6% at BMPR2; 0% at ERBB2; 0% at CDK4-cyclinD3; 0% at CLK4; 19% at CLK2; 0% on GRK1.

`CS(=O)(=O)Cc1ccc(Nc2nccc(-c3c(-c4cccc(NC(=O)C5CCCCC5)c4)nn4ncccc34)n2)cc1` [UNC10225159A]: the inhibition at 1 µM at HIPK2 was found to be 14%; on DMPK it was 0%; on HPK1, 14%; on INSRR it was 20%; at ALK it was 29%; on CAMK1G it was 0%. Also, the inhibition at 1 µM at BMPR2 amounted to 24%; at ERBB2 it was 25%; at CDK4-cyclinD3, 18%; at CLK4, 0%; on CLK2, 10%; on GRK1 it was 0%.

With `Cc1ccc(NC(=O)Nc2cccc(C(F)(F)F)c2)cc1` [UNC10225187A], the inhibition at 1 µM at HIPK2 was found to be 0%; at DMPK it was 0%; at HPK1, 0%; at INSRR it was 0%; on ALK it was 0%; on CAMK1G, 10%. Besides, the inhibition at 1 µM at BMPR2 was found to be 1%; at ERBB2 it was 0%; on CDK4-cyclinD3 it was 0%; at CLK4, 0%; at CLK2 it was 36%; at GRK1 it was 2%.
